Data published in US12552800B2, “Compounds for diagnosis” (AC IMMUNE SA, priority 2020, dated 2026).

Legend:
[1] = target: T1, PD brain-derived a-syn aggregates (Homo sapiens, UniProt P37840); experiment: Micro-radiobinding competition assay against Example-1 [^3H-1] (Table 8); format: binding; conditions: human PD brain-derived a-syn aggregates; for Competition at 100 nM (%): 100 nM non-radiolabelled example compound vs Example-1 [^3H-1] ligand; for Competition at 1 μM (%): 1 μM non-radiolabelled example compound vs Example-1 [^3H-1] ligand
T1 construct: from tissue; host or cells: human PD donor brain, sarkosyl-insoluble 100,000 x g pellet
Summary of the method: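 Human PD brain-derived α-syn aggregates on microarray slides were co-incubated with 6 nM or 20 nM tritiated radioligand and unlabelled compound at 1 μM and 100 nM, some over 0.05 nM–2 μM. Bound signal read by real-time autoradiography; values are % competition, at least two technical replicates, mean of independent experiments.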

[2] = target: T1, PD brain-derived a-syn aggregates; experiment: as above; format: binding; conditions: competition over Example-1 [^3H-1]

Compound	Competition at 100 nM (%) [1] [%]	Competition at 1 μM (%) [1] [%]	Ki [2] [nM]
O=C1c2cn(-c3ccc(N4CC[C@H](F)C4)nc3)nc2CN1c1cccnc1 [Example 3]	45	89	57
O=C1c2cn(-c3ccc(N4CC[C@@H](F)C4)nc3)nc2CN1c1ccccn1 [Example 5]	68	98	26
O=C1c2cn(-c3ccc(N4CC[C@H](F)C4)nc3)nc2CN1c1ccccn1 [Example 6]	87	98	19
O=C1c2cn(-c3ccc(N4CC[C@@H](F)C4)nc3)nc2CN1c1cnccn1 [Example 7]	87	101	5
Cl.O=C1c2cn(-c3ccc(N4CC[C@H](F)C4)nc3)nc2CN1c1cnccn1 [Example 17]	68	100	21
O=C1c2cn(-c3ccc(N4CC[C@H](F)C4)nc3)nc2CN1c1ncccn1 [Example 18]	23	86	111
O=C1c2cn(-c3ccc(N4CC[C@H](F)C4)nc3)nc2CN1c1ccnnc1 [Example 19]	23	83	74
O=C1c2cn(-c3ccc(N4CC[C@@H](F)C4)nc3)nc2CN1c1ccnnc1 [Example 25]	64	94	68
Cn1cc(N2Cc3nn(-c4ccc(N5CC[C@@H](F)C5)nc4)cc3C2=O)cn1 [Example 26]	87	108	20
COc1ccc(N2Cc3nn(-c4ccc(N5CC[C@@H](F)C5)nc4)cc3C2=O)cc1 [Example 27]	87	99	13
O=C1c2cn(-c3ccc(N4CCC[C@@H](F)C4)nc3)nc2CN1c1cccnc1 [Example 40]	50	77	49
O=C1c2cn(-c3ccc(N4CC(F)C4)nc3)nc2CN1c1cccnc1 [Example 48]	42	77	132
Nc1ccc(N2Cc3nn(-c4ccc(N5CCCC5)nc4)cc3C2=O)cc1F [Example 50]	94	103	8
O=C1c2cn(-c3ccc(N4CC[C@H](F)C4)nc3)nc2CN1c1ccncc1 [Example 54]	71	88	19
O=C1c2cn(-c3ccc(N4CC[C@H](F)C4)nc3)nc2CN1c1ccc(F)cc1 [Example 64]	54	95	2
Cc1ccnc(N2Cc3nn(-c4ccc(N5CC[C@@H](F)C5)nc4)cc3C2=O)c1 [Example 80]	51	83	56
O=C1c2cn(-c3ccc(N4CC[C@@H](F)C4)nc3)nc2CN1c1ccc(O)nc1 [Example 81]	56	90	118
O=C1c2cn(-c3ccc(N4CC[C@@H](F)C4)nc3)nc2CN1c1cncc(F)c1 [Example 91]	44	84	42
Cc1c2c(nn1-c1ccc(N3CC[C@@H](F)C3)nc1)CN(c1ccccn1)C2=O [Example 95]	34	68	54
COc1cncc(N2Cc3nn(-c4ccc(N5CC[C@@H](F)C5)nc4)cc3C2=O)c1 [Example 97]	33	84	84
COc1cncc(N2Cc3nn(-c4ccc(N5CC[C@H](F)C5)nc4)cc3C2=O)c1 [Example 98]	38	76	89
O=C1c2cn(-c3ccc(N4CCCC4)nc3)nc2CN1c1cncc(F)c1 [Example 99]	56	92	82
O=C1c2cn(-c3ccc(N4CC[C@H](F)C4)nc3)nc2CN1c1ccc(O)nc1 [Example 101]	–	75	311

Compound	Competition at 100 nM (%) [1] [%]	Competition at 1 μM (%) [1] [%]	Ki [2] [nM]
Cc1cncc(N2Cc3nn(-c4ccc(N5CC[C@@H](F)C5)nc4)cc3C2=O)c1 [Example 105]	57	83	149
Cc1cncc(N2Cc3nn(-c4ccc(N5CC[C@H](F)C5)nc4)cc3C2=O)c1 [Example 108]	54	81	182
O=C1c2cn(-c3ccc(N4CCCC4)nc3)nc2CN1c1ccncc1F [Example 113]	75	91	40
O=C1c2cn(-c3ccc(N4CCCC4)nc3)nc2CN1c1cncc(F)n1 [Example 139]	58	77	7
O=C1c2cn(-c3ccc(N4CCOCC4)nc3)nc2CN1c1cnc(F)cn1 [Example 142]	92	99	6
Cl.O=C1c2cn(-c3ccc(N4CCCC4)nc3)nc2CN1c1cnc(F)cn1 [Example 143]	80	91	8
O=C1c2cn(-c3ccc(C4CCCC4)nc3)nc2CN1c1cncc(F)n1 [Example 161]	42	65	–
O=C1c2cn(-c3ccc(N4CC[C@@H](F)C4)nc3)nc2CN1c1ccc(O)cn1 [Example 162]	92	110	–
O=C1c2cn(-c3ccc(N4CC[C@@H](F)C4)nc3)nc2CN1c1cccc(O)n1 [Example 164]	44	87	–
O=C1c2cn(-c3ccc(N4CC[C@H](F)C4)nc3)nc2CN1c1ccc(O)cn1 [Example 165]	88	107	–
O=C1c2cn(-c3ccc(N4CC[C@H](F)C4)nc3)nc2CN1c1cccnc1O [Example 168]	30	36	–
O=C1c2cn(-c3ccc(N4CC[C@H](F)C4)nc3)nc2CN1c1cc(O)ccn1 [Example 170]	65	102	–
O=C1c2cn(-c3ccc(N4CC[C@@H](F)C4)nc3)nc2CN1c1ccnc(O)c1 [Example 171]	48	–	–
O=C1c2cn(-c3ccc(N4CC[C@H](F)C4)nc3)nc2CN1c1ccnc(O)c1 [Example 172]	44	85	–
O=C1c2cn(-c3ccc(N4CC[C@H](F)C4)nc3)nc2CN1c1ccncc1O [Example 173]	12	54	–
O=C1c2cn(-c3ccc(N4CC[C@@H](F)C4)nc3)nc2CN1c1ccncc1O [Example 174]	46	64	–
O=C1c2cn(-c3ccc(N4CC[C@@H](F)C4)nc3)nc2CN1c1ccccc1O [Example 175]	32	65	–
O=C1c2cn(-c3ccc(N4CC[C@H](F)C4)nc3)nc2CN1c1ccccc1O [Example 176]	13	54	–
O=C1c2cn(-c3ccc(N4CC[C@@H](F)C4)nc3)nc2CN1c1cccc(O)c1 [Example 177]	76	100	–
O=C1c2cn(-c3ccc(N4CC[C@H](F)C4)nc3)nc2CN1c1cccc(O)c1 [Example 178]	77	103	–
O=C1c2cn(-c3ccc(N4CC[C@H](F)C4)nc3)nc2CN1c1ccc(O)cc1 [Example 179]	80	95	–
O=C1c2cn(-c3ccc(N4CC[C@@H](F)C4)nc3)nc2CN1c1ccc(O)cc1 [Example 180]	77	96	–
